Measured values reported in patent publication US11976083B2, “Inhibitors of peptidylarginine deiminases” (Gilead Sciences, Inc., priority 2020, dated 2024).

These compounds were tested against T1, human PAD4 (Homo sapiens, UniProt Q9UM07) (assay: In vitro PAD4 BAEE biochemical assay). Settings: BAEE substrate 3 mM, 5 nM PAD4, 2 mM calcium chloride; geometric mean of multiple experiments.
T1 construct: human PAD4 (NM_012387), A2-P663, was PCR amplified; His-SUMO (N, cleaved yes); made in house; host or cells: E. coli BL21(DE3)
T1 sequence (Q9UM07 2-663): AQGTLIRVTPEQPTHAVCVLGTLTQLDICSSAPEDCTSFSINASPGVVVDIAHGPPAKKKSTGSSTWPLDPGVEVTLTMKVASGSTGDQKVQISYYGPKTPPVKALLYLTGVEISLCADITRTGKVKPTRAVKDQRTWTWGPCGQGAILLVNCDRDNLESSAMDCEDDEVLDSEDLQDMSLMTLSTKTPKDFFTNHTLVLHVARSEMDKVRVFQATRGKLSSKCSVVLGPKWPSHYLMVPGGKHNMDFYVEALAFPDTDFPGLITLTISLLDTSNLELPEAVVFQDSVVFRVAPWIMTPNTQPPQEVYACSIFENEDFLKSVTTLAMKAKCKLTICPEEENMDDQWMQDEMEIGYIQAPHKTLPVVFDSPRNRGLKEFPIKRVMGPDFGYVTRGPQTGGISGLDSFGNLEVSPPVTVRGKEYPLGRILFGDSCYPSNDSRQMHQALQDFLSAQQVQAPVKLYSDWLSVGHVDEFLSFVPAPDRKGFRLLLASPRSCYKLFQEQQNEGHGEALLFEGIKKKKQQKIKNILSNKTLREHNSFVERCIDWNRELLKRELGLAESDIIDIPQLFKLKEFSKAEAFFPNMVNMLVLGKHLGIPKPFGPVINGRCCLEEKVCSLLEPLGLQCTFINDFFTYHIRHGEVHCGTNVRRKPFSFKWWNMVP
Outline: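 Recombinant PAD4 (5 nM final) with 2 mM CaCl2 was preincubated with compound for 30 min at 25 °C in MOPS pH 7.6 buffer with DTT, then reacted with 3 mM BAEE for 2 h at 25 °C. Released ammonia was detected fluorimetrically with o-phthalaldehyde/DTT; IC50 from four-parameter fit, geometric mean of experiments.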
An IC50 of 49 nM was found for `COc1cc(C(=O)N2CCC[C@@H](N)C2)cc2nc(-c3cc4ccc5nc4n3CCCCCc3nccnc3C(=O)N[C@@H]5C)n(C)c12` [Example 627, (2~{R})-17-[5-[(3~{R})-3-aminopiperidine-1-carbonyl]-7-methoxy-1-methyl-benzimidazol-2-yl]-2-methyl-3,6,9,16,22-pentazatetracyclo [14.5.2.0^{5,10}.0^{19,23}] tricosa-1(22),5(10), 6,8,17,19(23),20-heptaen-4-one] in this work. An IC50 of 83 nM was found for `COc1cc(C(=O)N2CC[C@@H](OC)[C@@H](N)C2)cc2nc(-c3cc4ccc5nc4n3CCCCCC[C@@H](OC)C(=O)N[C@@H]5C)n(C)c12` [Example 628, (8~{R},11~{R})-17-[5-[(3~ {S},4~{R})-3-amino-4-methoxy-piperidine-1-carbonyl]-7-methoxy-1-methyl-benzimidazol-2-yl]-8-methoxy-11-methyl-1,10,19-triazatricyclo [10.5.2.0^{15,18}] nonadeca-12(19),13,15(18),16-tetraen-9-one] in this work. An IC50 of 108 nM was found for `COc1cc(C(=O)N2CC[C@@H](OC(F)F)[C@@H](N)C2)cc2nc(-c3cc4ccc5nc4n3CCCCCC[C@@H](OC)C(=O)N[C@@H]5C)n(C)c12` [Example 629, (8~{R},11~{R})-17-[5-[(3~ {S},4~{R})-3-amino-4-(difluoromethoxy)piperidine-1-carbonyl]-7-methoxy-1-methyl-benzimidazol-2-yl]-8-methoxy-11-methyl-1,10,19-triazatricyclo [10.5.2.0^{15,18}]nonadeca-12(19),13,15(18),16-tetraen-9-one] in this work. An IC50 of 122 nM was found for `COc1ccnc2c1C(=O)N[C@H](C)c1ccc3cc(-c4nc5cc(C(=O)N6CC[C@@H](OC)[C@@H](N)C6)cc(OC)c5n4C)n(c3n1)CCCCC2` [Example 630, (2~{R})-17-[5-[(3~{S),4~ {R})-3-amino-4-methoxy-piperidine-1-carbonyl]-7-methoxy-1-methyl-benzimidazol-2-yl]-6-methoxy-2-methyl-3,9,16,22-tetrazatetracyclo[14.5.2.0^ {5,10}.0^{19,23}] tricosa-1(22),5(10), 6,8,17,19(23),20-heptaen-4-one] in this work. An IC50 of 211 nM was found for `COc1cc(C(=O)N2C[C@H](N)C[C@H](C(F)F)C2)cc2nc(-c3cc4ccc5nc4n3CCCCC[C@@H]3C[C@H]3C(=O)N[C@@H]5C)n(C)c12` [Example 631, (2~{R},5~{R},7~{R})-14-[5-[(3~{R},5~{S})-3-amino-5-(difluoromethyl)piperidine-1-carbonyl]-7-methoxy-1-methyl-benzimidazol-2-yl]-2-methyl-3,13,19-triazatetracyclo[11.5.2.0^ {5,7}.0^{16,20}]icosa-1(19),14,16(20),17-tetraen-4-one] in this work. An IC50 of 46 nM was found for `COc1cc(C(=O)N2CC3(CCCCNC3)C2)cc2nc(-c3cc4ccc5nc4n3CC(F)(F)CCC[C@@H]3C[C@H]3C(=O)N[C@@H]5C)n(C)c12` [Example 632, (2~{R},5~{R},7~{R})-14-[5-(2,9-diazaspiro[3.6]decane-2-carbonyl)-7-methoxy-1-methyl-benzimidazol-2-yl]-11,11-difluoro-2-methyl-3,13,19-triazatetracyclo [11.5.2.0^{5,7}.0^{16,20}] icosa-1(19),14,16(20), 17-tetraen-4-one] in this work. An IC50 of 57 nM was found for `COc1cc(C(=O)N[C@H]2CNC[C@@H](C(F)F)C2)cc2nc(-c3cc4ccc5nc4n3CC(F)(F)CCC[C@@H]3C[C@H]3C(=O)N[C@@H]5C)n(C)c12` [Example 633, 2-[(2~{R},5~{R},7~{R})-11,11-difluoro-2-methyl-4-oxo-3,13,19-triazatetracyclo[11.5.2.0^ {5,7}.0^{16,20}]icosa-1(19),14,16(20), 17-tetraen-14-yl]- ~{N}-[(3~{R},5~{S})-5-(difluoromethyl)-3-piperidyl]-7-methoxy-1-methyl-benzimidazole-5-carboxamide] in this work. An IC50 of 251 nM was found for `COc1cc(C(=O)N2CC[C@@H](OC)[C@@H](N)C2)cc2nc(-c3cc4ccc5nc4n3CCCCC[C@@H]3C[C@@]3(C(F)(F)F)C(=O)N[C@@H]5C)n(C)c12` [Example 634, (2~{R},5~{S},7~{R})-14-[5-[(3~{S},4~{R})-3-amino-4-methoxy-piperidine-1-carbonyl]-7-methoxy-1-methyl-benzimidazol-2-yl]-2-methyl-5-(trifluoromethyl)-3,13,19-triazatetracyclo[11.5.2.0^ {5,7}.0^{16,20}] icosa-1(19),14,16(20), 17-tetraen-4-one] in this work. An IC50 of 682 nM was found for `COc1cc(C(=O)N2CC[C@@H](OC)[C@@H](N)C2)cc2nc(-c3cc4ccc5nc4n3CCC/C=C/[C@@H]3C[C@@]3(C(F)(F)F)C(=O)N[C@@H]5C)n(C)c12` [Example 635, (2~{R},5~{S},7~{S},8~{E})-14-[5-[(3~{S},4~{R})-3-amino-4-methoxy-piperidine-1-carbonyl]-7-methoxy-1-methyl-benzimidazol-2-yl]-2-methyl-5-(trifluoromethyl)-3,13,19-triazatetracyclo[11.5.2.0^ {5,7}.0^{16,20}] icosa-1(19),8,14,16(20), 17-pentaen-4-one] in this work. An IC50 of 52 nM was found for `COc1cc(C(=O)N2CC[C@@H](OC)[C@@H](N)C2)cc2nc(-c3cc4ccc5nc4n3CCCCC[C@H]3C[C@]3(C(F)(F)F)C(=O)N[C@@H]5C)n(C)c12` [Example 636, (2~{R},5~{R},7~{S})-14-[5-[(3~{S},4~{R})-3-amino-4-methoxy-piperidine-1-carbonyl]-7-methoxy-1-methyl-benzimidazol-2-yl]-2-methyl-5-(trifluoromethyl)-3,13,19-triazatetracyclo [11.5.2.0^{5,7}.0^ {16,20}]icosa-1(19), 14,16(20),17-tetraen-4-one] in this work. An IC50 of 31 nM was found for `[2H]C([2H])([2H])O[C@@H]1CCN(C(=O)c2cc(OC)c3c(c2)nc(-c2cc4ccc5nc4n2CC(F)(F)CCC[C@@H]2C[C@H]2C(=O)N[C@@H]5C)n3C)C[C@@H]1N` [Example 637, (2~{R},5~{R},7~{R})-14-[5-[(3~{S},4~{R})-3-amino-4-(trideuteriomethoxy)piperidine-1-carbonyl]-7-methoxy-1-methyl-benzimidazol-2-yl]-11,11-difluoro-2-methyl-3,13,19-triazatetracyclo[11.5.2.0^ {5,7}.0^{16,20}] icosa-1(19),14,16(20), 17-tetraen-4-one] in this work. An IC50 of 15 nM was found for `C[C@@H]1[C@H](N)CCCN1C(=O)c1cc(F)c2c(c1)nc(-c1cc3ccc4nc3n1CC(F)(F)CCC[C@@H]1C[C@H]1C(=O)N[C@@H]4C)n2C1CC1` [Example 639, (2~{R},5~{R},7~{R})-14-[5-[(2~{R},3~{R})-3-amino-2-methyl-piperidine-1-carbonyl]-1-cyclopropyl-7-fluoro-benzimidazol-2-yl]-11,11-difluoro-2-methyl-3,13,19-triazatetracyclo[11.5.2.0^ {5,7}.0^{16,20}]icosa-1(19),14,16(20),17-tetraen-4-one] in this work. An IC50 of 24 nM was found for `C[C@H]1NC(=O)[C@@H]2C[C@H]2CCCC(F)(F)Cn2c(-c3nc4cc(C(=O)N5C[C@H](N)C[C@@H](F)C5)cc(F)c4n3C3CC3)cc3ccc1nc32` [Example 640, (2~{R},5~{R},7~{R})-14-[5-[(3~{R},5~{R})-3-amino-5-fluoro-piperidine-1-carbonyl]-1-cyclopropyl-7-fluoro-benzimidazol-2-yl]-11,11-difluoro-2-methyl-3,13,19-triazatetracyclo[11.5.2.0^ {5,7}.0^{16,20}]icosa-1(19),14,16(20),17-tetraen-4-one] in this work. An IC50 of 49 nM was found for `[2H]C([2H])([2H])O[C@@H]1CCN(C(=O)c2cc(F)c3c(c2)nc(-c2cc4ccc5nc4n2CC(F)(F)CCC[C@@H]2C[C@H]2C(=O)N[C@@H]5C)n3C2CC2)C[C@@H]1N` [Example 641, (2~{R},5~{R},7~{R})-14-[5-[(3~{S},4~{R})-3-amino-4-(trideuteriomethoxy)piperidine-1-carbonyl]-1-cyclopropyl-7-fluoro-benzimidazol-2-yl]-11,11-difluoro-2-methyl-3,13,19-triazatetracyclo[11.5.2.0^ {5,7}.0^{16,20}]icosa-1(19),14,16(20),17-tetraen-4-one] in this work. An IC50 of 23 nM was found for `COc1cc(C(=O)N2[C@H]3CC[C@@H]2[C@H](N)C3)cc2nc(-c3cc4ccc5nc4n3CC(F)(F)CCC[C@@H]3C[C@H]3C(=O)N[C@@H]5C)n(C)c12` [Example 642, (2~{R},5~{R},7~{R})-14-[5-[(1~{R},2~{R},4~ {S})-2-amino-7-azabicyclo[2.2.1]heptane-7-carbonyl]-7-methoxy-1-methyl-benzimidazol-2-yl]-11,11-difluoro-2-methyl-3,13,19-triazatetracyclo [11.5.2.0^{5,7}.0^{16,20}] icosa-1(19),14,16(20), 17-tetraen-4-one] in this work. An IC50 of 54 nM was found for `COc1cc(C(=O)N2CC[C@@H](OC)[C@@H](N)C2)cc2nc(-c3cc4ccc5c(F)c4n3CCCCCCC(C)(C)C(=O)N[C@@H]5C)n(C)c12` [Example 643, (11~{R})-17-[5-[(3~{S}, 4~{R})-3-amino-4-methoxy-piperidine-1-carbonyl]-7-methoxy-1-methyl-benzimidazol-2-yl]-19-fluoro-8,8,11-trimethyl-1,10-diazatricyclo[10.5.2.0^ {15,18}]nonadeca-12(19),13,15(18),16-tetraen-9-one] in this work. An IC50 of 76 nM was found for `COc1cc(C(=O)N2CCC[C@@H](N)[C@H]2C(F)F)cc2nc(-c3cc4ccc5nc4n3CCCCCCC(C)(C)C(=O)N[C@@H]5C)n(C)c12` [Example 644, (11~{R})-17-[5-[(2~{S), 3~{R})-3-amino-2-(difluoromethyl)piperidine-1-carbonyl]-7-methoxy-1-methyl-benzimidazol-2-yl]-8,8,11-trimethyl-1,10,19-triazatricyclo [10.5.2.0^{15,18}]nonadeca-12(19),13,15(18),16-tetraen-9-one] in this work.
